Assay results published in patent US20240285540A1, “FUNCTIONAL THERAPEUTIC INDEX IN THE TREATMENT OF PERIPHERAL IMMUNE DYSFUNCTION” (priority 2023, published 2024).
Marks after values point to notes of the source that are not given here. Primed or numbered codes have the meaning given here. Ends that are not written are not given here. bexarotene = RXR ligand attached at the C-terminus; adapalene = RARβ/γ ligand, attached at C-terminus; GW7647″ = PPARα ligand, attached at C-terminus; GW4064 = FXR ligand, attached at C-terminus

System: C2C12 myoblast cell line
Test: C2C12 myoblast differentiation assay (creatine kinase)
Type: cell-based
Details: 96 hours, relative to imm3SVD peptide (=100)
Description: C2C12 myoblast cell line (ATCC, Manassas, VA) was cultured in DMEM medium supplemented with 10% FBS and 1% penicillin/streptomycin. For differentiation, cells were cultured in the same medium, except that 10% FBS was replaced by 2% horse serum. Peptides and NR ligands were added at the indicated concentrations and cells were harvested 96 hours later for assay. Cell extracts were assayed for creatine kinase (CK) per mg protein. CK was measured using the ECPK-100 kit from BioAssay Systems (Hayward, CA). Protein was assayed using the BCA protein assay kit from Thermofisher Scientific (Waltham, MA). CK activities and p values were expressed relative to imm3SVD peptide (=100). **p<0.01; *p<00.05.

[1] = Peptide 0.66 uM, no added free ligand

Row | Compound | CK (units/mg) (Added ligand 2 uM together with imm3SVD peptide 0.66 uM) | CK (units/mg) [1]
1 | CN1c2ccccc2N=C(c2ccc(C(=O)O)cc2)c2cc3c(cc21)C(C)(C)CCC3(C)C [HX600] | 30.3 ± 16.0* % of imm3SVD peptide | 
2 | imm3adp: KKGFYKKKQCRPSKGRKRGFCWSVDK C-terminally liganded with adapalene (RARß/γ ligand) (KKGFYKKKQCRPSKGRKRGFCWSVDK-adapalene; cysteine pairing not given here) |  | 185.8 ± 23.5** % of imm3SVD peptide
3 | imm3bex: SDKKGFYKKKQCRPSKGRKRGFCWSVDK C-terminally liganded with bexarotene (RXR ligand) (SDKKGFYKKKQCRPSKGRKRGFCWSVDK-bexarotene; cysteine pairing not given here) |  | 121.0 ± 6.6* % of imm3SVD peptide
4 | imm3fxr: SDKKGFYKKKQCRPSKGRKRGFCWSVDK C-terminally liganded with GW4064 (FXR ligand) (SDKKGFYKKKQCRPSKGRKRGFCWSVDK-GW4064; cysteine pairing not given here) |  | 136.8 ± 19.6* % of imm3SVD peptide
5 | imm3ppa: SDKKGFYKKKQCRPSKGRKRGFCWSVDK C-terminally liganded with GW7647 (PPARα ligand) (SDKKGFYKKKQCRPSKGRKRGFCWSVDK-{GW7647″}; cysteine pairing not given here) |  | 155.9 ± 18.8** % of imm3SVD peptide
